# Where two headings read alike, the source gives them in different places.
# Legend:
# [1] = tested on: RNA Polymerase II Serine 5 phosphorylation (Rpb1 CTD, downstream substrate of CDK7) in A549 cells; test: Imaging-based cellular RNA PolII Ser5 phosphorylation assay in A549 cells; type: cell-based, human; conditions: wild-type CDK7, RNA PolII Ser5 phosphorylation, averaged over all measurements; for IC50: Homo sapiens, A549, A549 cells, read-out: CDK7_A549 Wild-type CDK7 (pIC50) (converted)
# Method in brief: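 A549 cells, seeded 1000/well in DMEM with 1% FBS and cultured 20 h, were treated with compound for 3 h at 37 °C. Ser5-phospho-Rpb1 CTD detected by immunofluorescence imaging after fixation and methanol permeabilization; IC50 from curve fit normalized to DMSO and 10 μM reference-compound controls.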
# [2] = tested on: RNA Polymerase II Serine 5 phosphorylation in A549 cells overexpressing CDK7-mutant (C312S); test: Imaging-based cellular RNA PolII Ser5 phosphorylation assay in A549 cells overexpressing CDK7-mutant (C312S); type: cell-based, human; conditions: RNA PolII Ser5 phosphorylation, averaged over all measurements; for IC50: Homo sapiens, A549, A549 cells overexpressing CDK7-mutant (C312S), read-out: CDK7_A549 mutant hCDK7(pIC50) (converted); for CDK7_A549 mutant hCDK7(pIC50): A549 cells overexpressing CDK7-mutant (C312S)
# Method in brief: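 A549 cells overexpressing CDK7 C312S (with endogenous wild-type CDK7) were treated with compound for 3 h at 37 °C in 1% FBS medium. Phospho-Rpb1 CTD Ser5 was immunostained after fixation and imaged. IC50 came from curve fit of % control, normalised to DMSO and 10 μM reference-compound controls.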
# [3] = molecular target: CDK7/cyclinH/MAT1 trimeric complex (Homo sapiens, UniProt P50613); test: In vitro CDK7 assay, potency of irreversible covalent inhibitors (kinact/KI), coupled PK/LDH ADP readout at 340 nm
# [4] = CDK7 (20 nM enz.) (KI, μM), 20 nM enzyme
# [5] = CDK7 (KI(μM)), […], 1 mM ATP, room temperature, averaged values over all measurements
# [6] = read-out: CDK7 (20 nM enz.) (kinact, s^−1), 20 nM enzyme
# [7] = read-out: CDK7 (20 nM enz.) (kinact/KI, M^−1*s^−1), 20 nM enzyme
# [8] = read-out: CDK7 (kinact, s^−1), kinact = maximal rate of inactivation, 1 mM ATP, room temperature, averaged values over all measurements
# [9] = read-out: CDK7 (kinact/KI, M^−1*s^−1), potency of irreversible covalent inhibitors, 1 mM ATP, room temperature, averaged values over all measurements
# [10] = read-out: CDK7 (20 nM enz.) (kobs/[I], M^−1*s^−1), 20 nM enzyme
# Chain of CDK7/cyclinH/MAT1 trimeric complex (P50613 whole entry): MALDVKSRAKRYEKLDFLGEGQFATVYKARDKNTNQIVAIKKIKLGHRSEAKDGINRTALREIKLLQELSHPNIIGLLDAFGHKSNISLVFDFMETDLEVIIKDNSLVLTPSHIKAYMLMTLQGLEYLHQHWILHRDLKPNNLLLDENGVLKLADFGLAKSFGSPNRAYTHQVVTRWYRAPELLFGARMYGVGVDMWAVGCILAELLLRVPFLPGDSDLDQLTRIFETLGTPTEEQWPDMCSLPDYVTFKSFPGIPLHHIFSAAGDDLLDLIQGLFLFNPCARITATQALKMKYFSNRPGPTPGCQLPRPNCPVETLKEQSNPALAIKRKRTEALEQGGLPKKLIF
# Chain of CDK7/cyclinH/MAT1 trimeric complex (P51946 whole entry partner): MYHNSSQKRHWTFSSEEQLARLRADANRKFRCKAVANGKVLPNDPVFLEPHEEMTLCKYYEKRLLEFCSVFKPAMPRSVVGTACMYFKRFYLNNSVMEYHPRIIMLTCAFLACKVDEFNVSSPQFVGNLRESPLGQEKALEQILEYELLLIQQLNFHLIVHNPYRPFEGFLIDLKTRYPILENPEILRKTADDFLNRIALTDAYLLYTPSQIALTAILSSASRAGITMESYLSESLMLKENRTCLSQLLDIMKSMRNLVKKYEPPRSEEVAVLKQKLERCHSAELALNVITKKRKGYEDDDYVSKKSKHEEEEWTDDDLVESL
# Chain of CDK7/cyclinH/MAT1 trimeric complex (P51948 whole entry partner): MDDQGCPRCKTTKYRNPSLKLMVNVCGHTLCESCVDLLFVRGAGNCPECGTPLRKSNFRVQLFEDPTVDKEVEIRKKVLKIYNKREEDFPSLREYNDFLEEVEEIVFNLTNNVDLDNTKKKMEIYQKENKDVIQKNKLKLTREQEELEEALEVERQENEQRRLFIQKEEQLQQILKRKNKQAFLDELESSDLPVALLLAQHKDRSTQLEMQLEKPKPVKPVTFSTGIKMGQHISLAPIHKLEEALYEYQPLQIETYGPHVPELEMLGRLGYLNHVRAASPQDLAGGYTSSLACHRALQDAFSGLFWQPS
Compound,IC50 [1],IC50 [2],melting point,"Ki [3, 4]","Ki [3, 5]","kinact [3, 6]","kinact/KI [3, 7]","kinact [3, 8]","kinact/KI [3, 9]",CDK7_A549 Wild-type CDK7 (pIC50) ([1]; A549 cells),CDK7_A549 mutant hCDK7(pIC50) [2],"kinact/KI [3, 10]","CDK7 (20 nM enz.) (kinact, s^−1) ([3]; 20 nM enzyme)"
C=CC(=O)Nc1ccc(C(=O)Nc2ccc3c(c2)Nc2nccc(C4CCOCC4)c2CO3)cc1 [Compound 1],132 nM,~8510 nM,281.1 °C,0.0456 µM,0.107 µM,5.77e-05 s⁻¹,1270 M⁻¹ s⁻¹,0.0003 s⁻¹,2030 M⁻¹ s⁻¹,–,–,–,–
C=CC(=O)N1CC(N2CCC(c3ccc4c(c3)OCc3c(N5CCOCC5)ccnc3N4)CC2)C1 [Compound 35],692 nM,> 10000 nM,117.9 °C,–,0.123 µM,–,–,0.000133 s⁻¹,1090 M⁻¹ s⁻¹,–,–,–,–
C=CC(=O)N1CC(N2CCC(c3cc4c(cn3)OCc3c(N5CCOCC5)ccnc3N4)CC2)C1 [Compound 83],–,–,238.4 °C,–,–,–,–,–,–,6.95,<5,782 M⁻¹ s⁻¹,–
C=CC(=O)N1CC(N2CCC(c3cc4c(c(C)n3)OCc3c(-c5cnn(C)c5)ccnc3N4)CC2)C1 [Compound 164],55 nM,> 10000 nM,277.8 °C,0.0786 µM,–,–,1010 M⁻¹ s⁻¹,–,–,–,–,–,7.933e-05 s⁻¹
C=CC(=O)N1CC(N2CCC(c3cc4c(c(C5CC5)n3)OCc3c(N5CCOCC5)ccnc3N4)CC2)C1 [Compound 272],44.7 nM,> 10000 nM,189.9 °C,0.0212 µM,–,2.13e-05 s⁻¹,1010 M⁻¹ s⁻¹,–,–,–,–,–,–
C=CC(=O)N1CC(N2CCC(c3cc4c(c(C#N)n3)OCc3c(N5CCOCC5)ccnc3N4)CC2)C1 [Compound 306],123 nM,> 10000 nM,256.7 °C,–,–,–,–,–,–,–,–,1170 M⁻¹ s⁻¹,–

# The remaining lines, values ahead:
IC50 [1],IC50 [2],melting point,"Ki [3, 4]","Ki [3, 5]","kinact [3, 6]","kinact/KI [3, 7]","kinact [3, 8]","kinact/KI [3, 9]",CDK7_A549 Wild-type CDK7 (pIC50) ([1]; A549 cells),CDK7_A549 mutant hCDK7(pIC50) [2],"kinact/KI [3, 10]","CDK7 (20 nM enz.) (kinact, s^−1) ([3]; 20 nM enzyme)",Compound
64.6 nM,–,236.9 °C,0.0574 µM,–,7.26e-05 s⁻¹,1260 M⁻¹ s⁻¹,–,–,–,<5.4,–,–,C=CC(=O)N1CC(N2CCC(c3cc4c(c(C)n3)OCc3c(N5CCOCC5)ccnc3N4)CC2)C1 [Compound 173]
138 nM,> 10000 nM,178.5 °C,0.233 µM,–,2.96e-05 s⁻¹,127 M⁻¹ s⁻¹,–,–,–,–,–,–,CC#CC(=O)N1CC(N2CCC(c3cc4c(c(C)n3)OCc3c(N5CCOCC5)ccnc3N4)CC2)C1 [Compound 279]
245 nM,> 10000 nM,229.2 °C,0.0216 µM,–,3e-05 s⁻¹,1390 M⁻¹ s⁻¹,–,–,–,–,–,–,CC#CC(=O)N1CC(N2CCC(c3cc4c(c(-c5ncc[nH]5)n3)OCc3c(N5CCOCC5)ccnc3N4)CC2)C1 [Compound 369]
162 nM,> 3980 nM,195.5 °C,–,–,–,–,–,–,–,–,1740 M⁻¹ s⁻¹,–,C=CC(=O)N1CC(N2CCC(c3cc4c(c(-c5ncc[nH]5)n3)OCc3c(N5CCOCC5)ccnc3N4)CC2)C1 [Compound 378]
155 nM,> 10000 nM,174.8 °C,0.0766 µM,–,4.63e-05 s⁻¹,605 M⁻¹ s⁻¹,–,–,–,–,–,–,CC#CC(=O)N1CC(N2CCC(c3cc4c(c(C5CC5)n3)OCc3c(N5CCOCC5)ccnc3N4)CC2)C1 [Compound 403]

# Reference: patent publication US20240254138A1, “TRICYCLIC PYRIMIDINES AS CYCLIN-DEPENDENT KINASE 7 (CDK7) INHIBITORS” (JANSSEN PHARMACEUTICA NV, priority 2021, published 2024)
